Measured values as given in article PMC4810358, “Applicability of the Rayleigh equation for enantioselective metabolism of chiral xenobiotics by microsomes, hepatocytes and in-vivo retention in rabbit tissues” (Scientific Reports, 2016).
Where “and” joins values, the source holds several entries; their conditions need not be identical. Equal values may be shown once. Read-outs that look alike come from different tables or passages of the source. Each block holds one compound with its values, some of them ahead of it.

Key:
[1] = cited from earlier work; for first order half-life: hepatocytes from male Sprague-Dawley rats; for individual first order rate constant: myclobutanil, hepatocytes from male Sprague–Dawley rats
[2] = de-methylation (enantioselective degradation) by Sprague Dawley rat liver microsomes; assay type: in vitro ADME; conditions: RLM-SD; for Overall first order kinetic constant, kc: racemate, 37 °C, 0–120 min; for Enantiomeric enrichment factor, εER: mean ± 95% confidence interval of Rayleigh slope, n = 3, NE = no enrichment
Protocol: (§1) The reactions were initiated by the addition of 120 μl NADPH-regenerating system (100 μL of solution A and 20 μL of solution B) that were added after a 3-min pre-incubation of the incubation mixtures containing 10 μl of substrate (1 g/L), 50 μl human/rat hepatic microsomes (20 mg protein/ml) and […] sodium phosphate buffer, 0.1 M pH 7.4 final volume was 500 μl. The reactions were stopped at time intervals by cooling on ice and addition of 100 μl acetonitrile followed by the addition of 20 μL internal standards stock solution (0.1 g/L). After termination of the reaction 200 microliter sodium carbonate solution (1 M, pH 12) was added and samples were then vigorously shaken for 1 min and consequently extracted into 6 ml n-hexane/acetonitrile (98/2 vol/vol) using an Intelli mixer on 50 rpm for 5 min. after centrifugation for 10 min (6,000 rpm) the upper organic layer was collected and the procedure was repeated. The samples were eventually evaporated till dry under a gentle stream of nitrogen. The residue was dissolved in 200 microliter methanol and analyzed by HPLC-MS. These degradation studies were done in duplicates.
(§2) Control assays were run under the same conditions, with 200 μL insect control supersomes (5 mg protein/ml) used as a negative control, i.e containing no CYP450 but the same protein content (cytochrome b5), while 10 μl of Verapamil (1 g/L) and 50 μl human microsomes (20 mg protein/ml) was incubated for 30 min as a positive control.
(§3) The chiral separation method was based on methodology of Begnall et al.[62]. […] For all separations the column and autosampler were maintained at 25 °C, with an optimal chromatographic run time of 24 minutes, the injection volume was 10 μL. QTOF mass spectrometer equipped with an electrospray ionization source (Agilent G3251A Dual ESI) was used for chiral drug identification and quantification. Analysis was performed in positive mode with a capillary voltage potential of 4000 V; the nebulizer gas pressure was set to 40 psi and drying gas flow was 10 L/min, with a drying gas temperature of 300 °C. The fragmentor voltage was set at 140 V, and skimmer voltage was 65 V. Scan range was 50–1000 m/z, the other MS parameters remained at auto-tune conditions.
(§4) The enantiomeric ratios were expressed as the ER – the peak area of one enantiomer (the more abundant) divided by that of the other enantiomer.

[3] = de-methylation (enantioselective degradation) by human liver microsomes; conditions: HLM; for Overall first order kinetic constant, kc: racemate, 37 °C, 0–120 min; for Enantiomeric enrichment factor, εER: mean ± 95% confidence interval of Rayleigh slope, n = 3, NE = no enrichment
Protocol: as §1, §2, §3, §4

[4] = de-methylation (enantioselective degradation) by Lewis rat liver microsomes; assay type: in vitro ADME; conditions: RLM-L; for Overall first order kinetic constant, kc: racemate, 37 °C, 0–120 min; for Enantiomeric enrichment factor, εER: mean ± 95% confidence interval of Rayleigh slope, n = 3, NE = no enrichment
Protocol: as §1, §2, §3, §4

[5] = de-methylation (enantioselective degradation) by Wistar Han rat liver microsomes; assay type: in vitro ADME; conditions: RLM-W; for Overall first order kinetic constant, kc: racemate, 37 °C, 0–120 min; for Enantiomeric enrichment factor, εER: mean ± 95% confidence interval of Rayleigh slope, n = 3, NE = no enrichment
Protocol: as §1, §2, §3, §4

[6] = stereoselective degradation of metalaxyl in hepatic microsomes (Zhang et al.); assay type: in vitro ADME, rat and rabbit; conditions: reconstructed from data of Fig. 3a in ref 22; R^2 = 0.94
Protocol: (§5) In addition to the microsome studies, the Rayleigh equation was fitted to reported studies on biodegradation of chiral compounds using liver microsomes and hepatocytes for which there was sufficient data available. We focused on studies published on years 2011–2015 that reported on first order kinetics and/or provided concentration - time profiles of the individual enantiomers after incubation of the racemate with the metabolizer, i.e. systems analyzed by approach II in the introduction.

[7] = enantioselective metabolism in rat hepatocytes (reported studies); assay type: in vitro ADME; conditions: ETO, reconstructed from concentration–time curves of Fig. 2 in ref 53; R^2 = 0.96
Protocol: as §5
Wang et al.[24] studied the enantioselective metabolism of the fungicide hexaconazole as well, they used male Sprague–Dawley rat hepatocytes. […] In a second test case, Wang et al.[52] studied the degradation of the fungicide myclobutanil in hepatocytes from male Sprague–Dawley rats.

Structure (SMILES): CCCCCCC(C)OC(=O)COc1nc(F)c(Cl)c(N)c1Cl (single isomer, unassigned; (-)) [(−) FPMH]
- first order half-life ([1]; fluroxypyr methylheptyl ester): 0.218 h

- Overall first order kinetic constant, kc [2]: 0.02 min⁻¹
- Enantiomeric enrichment factor, εER [2]: −11 ± 6 (0.92) %
- Overall first order kinetic constant, kc [3]: 0.004 min⁻¹
- Enantiomeric enrichment factor, εER [3]: −237 ± 29% and −237 ± 29 (0.92) %
- Overall first order kinetic constant, kc [4]: 0.03 min⁻¹
- Enantiomeric enrichment factor, εER [4]: −53 ± 12 (0.98) %
- Overall first order kinetic constant, kc [5]: 0.008 min⁻¹
- Enantiomeric enrichment factor, εER [5]: −38 ± 5 (0.92) %
Structure (SMILES): CN1CCN2c3ccccc3Cc3ccccc3C2C1 (racemic) [MNS, (R,S)-mianserin]

Structure (SMILES): CCCCC(C#N)(Cn1cncn1)c1ccc(Cl)cc1 (single isomer, unassigned; (-)) [(−)-myclobutanil]
- individual first order rate constant [1]: 0.046 h⁻¹

Structure (SMILES): CNCCC(Oc1ccc(C(F)(F)F)cc1)c1ccccc1 (racemic) [FLX, (R,S)-fluoxetine]
- Overall first order kinetic constant, kc [2]: 0.02 min⁻¹
- Overall first order kinetic constant, kc [3]: 0.01 min⁻¹
- Overall first order kinetic constant, kc [4]: 0.04 min⁻¹
- Overall first order kinetic constant, kc [5]: 0.06 min⁻¹

Structure (SMILES): CCOC1Oc2ccc(OS(C)(=O)=O)cc2C1(C)C (single isomer, unassigned; (-)) [(−) ETO]
- first order half-life ([1]; ethofumesate): 4.1 h

Structure (SMILES): CCCCC(C#N)(Cn1cncn1)c1ccc(Cl)cc1 (single isomer, unassigned; (+)) [(+)-myclobutanil]
- individual first order rate constant [1]: 0.065 h⁻¹

Structure (SMILES): CCCCCCC(C)OC(=O)COc1nc(F)c(Cl)c(N)c1Cl (single isomer, unassigned; (+)) [(+) FPMH]
- first order half-life ([1]; fluroxypyr methylheptyl ester): 0.085 h

Structure (SMILES): CCOC1Oc2ccc(OS(C)(=O)=O)cc2C1(C)C (single isomer, unassigned; (+)) [(+) ETO]
- first order half-life ([1]; ethofumesate): 2.0 h

- Overall first order kinetic constant, kc [2]: 0.009 min⁻¹
- Enantiomeric enrichment factor, εER [2]: −9 ± 1 (0.96) %
- Overall first order kinetic constant, kc [3]: 0.025 min⁻¹
- Enantiomeric enrichment factor, εER [3]: −7 ± 1 (0.98) %
- Overall first order kinetic constant, kc [4]: 0.007 min⁻¹
- Enantiomeric enrichment factor, εER [4]: −59 ± 2 (0.94) %
- Overall first order kinetic constant, kc [5]: 0.02 min⁻¹
- Enantiomeric enrichment factor, εER [5]: −4 ± 1% and −4 ± 1 (0.91) %
Structure (SMILES): CN(C)CC(c1ccc(O)cc1)C1(O)CCCCC1 (racemic) [O-DMV, (R,S)-O-desmethylvanlafaxine]

Structure (SMILES): COCC(=O)N(c1c(C)cccc1C)C(C)C(=O)OC (centres unmarked) [metalaxyl]
- Enantiomeric enrichment factor, εER [6]: −78 ± 14%

- Overall first order kinetic constant, kc [2]: 0.02 min⁻¹
- Enantiomeric enrichment factor, εER [2]: −10 ± 4 (0.92) %
- Overall first order kinetic constant, kc [3]: 0.007 min⁻¹
- Enantiomeric enrichment factor, εER [3]: −36 ± 3 (0.95) %
- Overall first order kinetic constant, kc [4]: 0.007 min⁻¹
- Overall first order kinetic constant, kc [5]: 0.07 min⁻¹
- Enantiomeric enrichment factor, εER [5]: −53 ± 3 (0.95) %
Structure (SMILES): CN(C)CCCC1(c2ccc(F)cc2)OCc2cc(C#N)ccc21 (racemic) [CTM, (R,S)-citalopram]

Structure (SMILES): CCOC1Oc2ccc(OS(C)(=O)=O)cc2C1(C)C (centres unmarked) [ETO, ethofumesate]
- enantiomeric enrichment factor [7]: −75 ± 11%
